Row | SMILES | logP
1 | OCCS | -0.06
2 | CC(C)C=O | 0.4
3 | COCCOCCOCCO | -0.7
4 | C=CC(=O)O | 0.31
5 | NCCNCCN | -1.3
6 | C=C(C)CCl | 1.98
7 | O=C1OC(=O)c2ccccc21 | 0.7
8 | C/C=C/C=O | 0.6
9 | CCOCCOC(C)=O | 0.24
10 | C1=CC2C3C=CC(C3)C2C1 (stereo not drawn) | 2.9
11 | CCCCCOC(C)=O | 2
12 | CC(C)CC=O | 1.3
13 | CCCCCCCCCCO | 4.2
14 | Cc1ccc(S(=O)(=O)O)cc1 | 0.09
15 | CC[C@H](C)N | 0.6
16 | CCCCC(CC)COC(=O)CCCCC(=O)OCC(CC)CCCC (stereo not drawn) | 8.1
17 | O=P(OCCCl)(OCCCl)OCCCl | 0.5
18 | CCCCOC(=O)c1ccccc1C(=O)OCc1ccccc1 | 4.5
19 | OCCOCCOCCO | -1.2
20 | OCC#CCO | -0.73
21 | CC(=O)OCCl | 0.75
22 | COCCOCCO | -1.1
23 | C=CCCl | 3
24 | C=CC(=O)OCC | 1.2
25 | CCCCOCCOCCOC(C)=O | 1.77
26 | CC(C)C(=O)O | 0.88
27 | COS(=O)(=O)OC | 0.03
28 | OCCOCCO | -1.98

— the SangsterLogP compilation
